Experimental data taken from patent publication US11559559B2, “Angiotensin II alone or in combination for the treatment of hypotension” (The George Washington University a Congressionally …, priority 2013, dated 2023).

System: patients with high output shock
Conditions: in vivo
Description: The investigators, clinical support staff, the patients and their families were unaware of the treatment assignment for the duration of the study.
Enrolled patients were randomized to receive the Study Drug infusion in normal saline calculated to run at a drip rate corresponding to an initial concentration of 20 ng/kg/min, plus the standard-of-care treatment for high output shock. The Study Drug was prepared in an opaque cellophane bag, the contents of which were unknown to the investigators, nurses or anyone else taking direct care of the patient. The Study Drug was administered for a total of 6 hours, with dose (and corresponding drip rate) adjustments made hourly. Study Drug dose adjustments were determined per a pre-specified protocol, based on the concomitant requirements of standard-of-care therapy (in all cases, norepinephrine infusion plus vasopressin, epinephrine and/or phenylephrine infusions) needed to maintain a mean arterial pressure (MAP) at or above 65 mm Hg, which is the standard practice at our institution. […] At the end of 6 hours, the Study Drug infusion was titrated off by being halved every 10 minutes until the Study Drug infusion dose was below 5 ng/kg/min, after which it was discontinued.
A small cohort of patients was analyzed, consistent with similar studies of this nature. […] An independent data and safety monitor (DSM) was assigned and reviewed all adverse events.

hypertension, patients receiving ATII in whom it occurred: 20%
Compound: CC[C@H](C)[C@H](NC(=O)[C@H](Cc1ccc(O)cc1)NC(=O)[C@@H](NC(=O)[C@H](CCCNC(=N)N)NC(=O)[C@@H](N)CC(=O)O)C(C)C)C(=O)N[C@@H](Cc1cnc[nH]1)C(=O)N1CCC[C@H]1C(=O)N[C@@H](Cc1ccccc1)C(=O)O [ATII, angiotensin II]
Adverse events: Acidosis: 2 | Adverse events: Atrial Fibrillation: 2 | Adverse events: Blood or lymphatic disorders: 3 | Adverse events: Cardiac disorders: 7 | Adverse events: Decreased urine output: 3 | Adverse events: Hypertension: 2 | Adverse events: Hypotension: 2 | Adverse events: Metabolic disorders: 11 | Adverse events: Other disorders: 5 | Adverse events: Renal disorders: 6 | Adverse events: Respiratory disorders: 3 | Adverse events: Wheezing: 1 | Adverse events: Worsening AKI: 0 | Adverse events: Worsening MOSF: 2 | Adverse events: Worsening respiratory failure: 1 | patients in whom ATII infusion was discontinued due to hypertension: ^⋄ATII infusion was discontinued in two patients due to hypertension. | tolerability: well-tolerated
